Like-named read-outs stand apart in the source and are kept apart here.
Key:
[1] = target: WRN (BV08), human Werner helicase (Uniprot Q14191, amino acids 517-1235 with L1074F point mutation) (Homo sapiens (Human), UniProt Q14191, L1074F); assay: WRN (BV08) ADP-Glo assay; assay type: biochemical; conditions: class symbols A-E, read-out: ADP-Glo_hWRN_IC50
[2] = test system: p21 induction in HCT116 cells; assay: p21 induction in HCT116 cells; assay type: cell-based; conditions: Homo sapiens, HCT-116, 24 h, read-out: P21_EC50
Summary of the method: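 EC50 from non-linear curve fit of p21 immunofluorescence (800 nm), with GAPDH (700 nm) read alongside. DMSO and a reference WRN inhibitor served as low and high controls. Cells (2,000/well) got 11 compound concentrations in duplicate for 24 h at 37 °C.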

[3] = HCT116 cells, 24 h compound incubation

Chain of WRN (BV08), human Werner helicase (Uniprot Q14191, amino acids 517-1235 with L1074F point mutation) (Q14191 other isoform, or with tags, fused parts or gaps L1074F (already in the parent)): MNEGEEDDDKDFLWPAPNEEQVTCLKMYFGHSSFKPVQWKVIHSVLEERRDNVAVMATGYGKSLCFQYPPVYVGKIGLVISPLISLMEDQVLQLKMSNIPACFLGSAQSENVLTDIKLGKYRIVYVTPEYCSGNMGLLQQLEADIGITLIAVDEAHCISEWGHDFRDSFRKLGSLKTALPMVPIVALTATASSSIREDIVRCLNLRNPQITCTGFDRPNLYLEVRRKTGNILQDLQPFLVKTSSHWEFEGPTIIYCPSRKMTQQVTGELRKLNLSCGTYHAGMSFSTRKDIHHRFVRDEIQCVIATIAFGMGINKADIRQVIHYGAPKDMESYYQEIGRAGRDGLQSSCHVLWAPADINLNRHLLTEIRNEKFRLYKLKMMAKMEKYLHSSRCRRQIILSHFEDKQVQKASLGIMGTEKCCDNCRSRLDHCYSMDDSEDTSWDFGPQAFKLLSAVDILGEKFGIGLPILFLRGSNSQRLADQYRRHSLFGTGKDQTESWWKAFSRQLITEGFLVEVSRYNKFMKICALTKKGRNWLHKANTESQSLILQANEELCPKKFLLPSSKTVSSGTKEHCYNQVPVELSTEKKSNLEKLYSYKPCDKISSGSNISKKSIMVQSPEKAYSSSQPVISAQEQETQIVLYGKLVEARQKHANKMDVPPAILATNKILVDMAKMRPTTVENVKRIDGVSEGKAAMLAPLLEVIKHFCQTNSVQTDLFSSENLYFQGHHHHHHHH

Row | Structure (SMILES) | IC50 [1] [nM] | EC50 [2, 3] [µM] | EC50 [2] [µM]
1 | CCc1c(N2CCN(C(=O)c3ncnc(C)c3O)CC2)c(=O)c2nc(OC(F)F)cnc2n1CC(=O)Nc1ccc(C(F)(F)F)cc1Cl [I-26, N-(2-chloro-4-(trifluoromethyl)phenyl)-2-(2-(difluoromethoxy)-6-ethyl-7-(4-(5-hydroxy-6-methylpyrimidine-4-carbonyl)piperazin-1-yl)-8-oxopyrido[2,3-b]pyrazin-5(8H)-yl)acetamide] | 100 to 500 | > 5 | 
2 | CCc1c(N2CCN(C(=O)c3ncnc(C)c3O)CC2)c(=O)c2nc(C(F)F)c(C)nc2n1CC(=O)Nc1ccc(C(F)(F)F)cc1Cl [I-28, N-(2-chloro-4-(trifluoromethyl)phenyl)-2-(2-(difluoromethyl)-6-ethyl-7-(4-(5-hydroxy-6-methylpyrimidine-4-carbonyl)piperazin-1-yl)-3-methyl-8-oxopyrido[2,3-b]pyrazin-5(8H)-yl)acetamide] | 5 to 50 | > 5 | 
3 | CCc1c(N2CCN(C(=O)c3ncnc(C)c3O)CC2)c(=O)c2nc(N(C)C)c(C)nc2n1CC(=O)Nc1ccc(C(F)(F)F)cc1Cl [I-29, N-(2-chloro-4-(trifluoromethyl)phenyl)-2-(2-(dimethylamino)-6-ethyl-7-(4-(5-hydroxy-6-methylpyrimidine-4-carbonyl)piperazin-1-yl)-3-methyl-8-oxopyrido[2,3-b]pyrazin-5(8H)-yl)acetamide] | 5 to 50 |  | 0.5 to 2
4 | CCc1c(N2CCN(C(=O)c3ncnc(C)c3O)CC2)c(=O)c2nc(N(C)C(C)=O)cnc2n1CC(=O)Nc1ccc(C(F)(F)F)cc1Cl [I-30, N-(2-chloro-4-(trifluoromethyl)phenyl)-2-(6-ethyl-7-(4-(5-hydroxy-6-methylpyrimidine-4-carbonyl)piperazin-1-yl)-2-(N-methylacetamido)-8-oxopyrido[2,3-b]pyrazin-5(8H)-yl)acetamide] | 50 to 100 | > 5 | 
5 | CCc1c(N2CCN(C(=O)c3ncnc(C)c3O)CC2)c(=O)c2nc(NC(C)=O)cnc2n1CC(=O)Nc1ccc(C(F)(F)F)cc1Cl [I-31, 2-(2-acetamido-6-ethyl-7-(4-(5-hydroxy-6-methylpyrimidine-4-carbonyl)piperazin-1-yl)-8-oxopyrido[2,3-b]pyrazin-5(8H)-yl)-N-(2-chloro-4-(trifluoromethyl)phenyl)acetamide] | 5 to 50 | > 5 | 
6 | CCc1c(N2CCN(C(=O)c3[nH]nc(C)c3O)CC2)c(=O)c2ncc(C)nc2n1CC(=O)Nc1ccc(C(F)(F)F)cc1Cl [I-32, N-(2-chloro-4-(trifluoromethyl)phenyl)-2-(6-ethyl-7-(4-(4-hydroxy-3-methyl-1H-pyrazole-5-carbonyl)piperazin-1-yl)-3-methyl-8-oxopyrido[2,3-b]pyrazin-5(8H)-yl)acetamide] | 50 to 100 | > 5 | 
7 | CCc1c(N2CCN(C(=O)c3ccc4cn[nH]c4c3O)CC2)c(=O)c2ncc(C)nc2n1CC(=O)Nc1ccc(C(F)(F)F)cc1Cl [I-33, N-(2-chloro-4-(trifluoromethyl)phenyl)-2-(6-ethyl-7-(4-(7-hydroxy-1H-indazole-6-carbonyl)piperazin-1-yl)-3-methyl-8-oxopyrido[2,3-b]pyrazin-5(8H)-yl)acetamide] | 5 to 50 | > 5 | 
8 | CCc1c(N2CCN(C(=O)c3ncnc(C)c3O)CC2)c(=O)c2ncc(Cl)nc2n1CC(=O)Nc1ccc(C(F)(F)F)cc1Cl [I-43, N-(2-chloro-4-(trifluoromethyl)phenyl)-2-(3-chloro-6-ethyl-7-(4-(5-hydroxy-6-methylpyrimidine-4-carbonyl)piperazin-1-yl)-8-oxopyrido[2,3-b]pyrazin-5(8H)-yl)acetamide] | 100 to 500 | > 5 | 
9 | CCc1c(N2CCN(C(=O)c3ncnc(C)c3O)CC2)c(=O)c2nc(N3CC(C)(O)C3)cnc2n1CC(=O)Nc1ccc(C(F)(F)F)cc1Cl [I-44, N-(2-chloro-4-(trifluoromethyl)phenyl)-2-(6-ethyl-2-(3-hydroxy-3-methylazetidin-1-yl)-7-(4-(5-hydroxy-6-methylpyrimidine-4-carbonyl)piperazin-1-yl)-8-oxopyrido[2,3-b]pyrazin-5(8H)-yl)acetamide] | 5 to 50 | > 5 | 
10 | CCc1c(N2CCN(C(=O)c3ncnc(C)c3O)CC2)c(=O)c2nccnc2n1CC(=O)Nc1ccc(C(F)(F)F)cc1Cl [I-46, N-(2-chloro-4-(trifluoromethyl)phenyl)-2-(6-ethyl-7-(4-(5-hydroxy-6-methylpyrimidine-4-carbonyl)piperazin-1-yl)-8-oxopyrido[2,3-b]pyrazin-5(8H)-yl)acetamide] | 5 to 50 | > 5 | 
11 | CCc1c(N2CCN(C(=O)c3ncnc(C)c3O)CC2)c(=O)c2nc(N3CCC(C)(O)C3)cnc2n1CC(=O)Nc1ccc(C(F)(F)F)cc1Cl (stereo not drawn) [I-47, N-(2-chloro-4-(trifluoromethyl)phenyl)-2-(6-ethyl-2-(3-hydroxy-3-methylpyrrolidin-1-yl)-7-(4-(5-hydroxy-6-methylpyrimidine-4-carbonyl)piperazin-1-yl)-8-oxopyrido[2,3-b]pyrazin-5(8H)-yl)acetamide] | 5 to 50 | > 5 | 
12 | CCc1c(N2CCN(C(=O)c3ncnc(C)c3O)CC2)c(=O)c2nc(C(=O)N(C)C)cnc2n1CC(=O)Nc1ccc(C(F)(F)F)cc1Cl [I-48, 5-(2-((2-chloro-4-(trifluoromethyl)phenyl)amino)-2-oxoethyl)-6-ethyl-7-(4-(5-hydroxy-6-methylpyrimidine-4-carbonyl)piperazin-1-yl)-N,N-dimethyl-8-oxo-5,8-dihydropyrido[2,3-b]pyrazine-2-carboxamide] | 100 to 500 | > 5 | 

The next lines start with results.

Row | IC50 [1] [nM] | EC50 [2, 3] [µM] | Structure (SMILES) | EC50 [2] [µM]
13 | 5 to 50 | > 5 | CCc1c(N2CCN(C(=O)c3ncnc(C)c3O)CC2)c(=O)c2nc(N3CCCC3=O)cnc2n1CC(=O)Nc1ccc(C(F)(F)F)cc1Cl [I-27, N-(2-chloro-4-(trifluoromethyl)phenyl)-2-(6-ethyl-7-(4-(5-hydroxy-6-methylpyrimidine-4-carbonyl)piperazin-1-yl)-8-oxo-2-(2-oxopyrrolidin-1-yl)pyrido[2,3-b]pyrazin-5(8H)-yl)acetamide] | 
14 | 5 to 50 | 2 to 5 | CCc1c(N2CCN(C(=O)c3ncnc(C)c3O)CC2)c(=O)c2nc(/C=C3/CCOC3)cnc2n1CC(=O)Nc1ccc(C(F)(F)F)cc1Cl [I-35, N-(2-chloro-4-(trifluoromethyl)phenyl)-2-(2-((dihydrofuran-3(2H)-ylidene)methyl)-6-ethyl-7-(4-(5-hydroxy-6-methylpyrimidine-4-carbonyl)piperazin-1-yl)-8-oxopyrido[2,3-b]pyrazin-5(8H)-yl)acetamide] | 
15 | 5 to 50 | 2 to 5 | CCc1c(N2CCN(C(=O)c3ncnc(C)c3O)CC2)c(=O)c2nc(C=C3CCOCC3)cnc2n1CC(=O)Nc1ccc(C(F)(F)F)cc1Cl [I-36, N-(2-chloro-4-(trifluoromethyl)phenyl)-2-(6-ethyl-7-(4-(5-hydroxy-6-methylpyrimidine-4-carbonyl)piperazin-1-yl)-8-oxo-2-((tetrahydro-4H-pyran-4-ylidene)methyl)pyrido[2,3-b]pyrazin-5(8H)-yl)acetamide] | 
16 | ≤ 5 | < 0.5 | CCc1c(N2CCN(C(=O)c3ncnc(C)c3O)CC2)c(=O)c2nc(C=C(C)C)cnc2n1CC(=O)Nc1ccc(C(F)(F)F)cc1Cl [I-37, N-(2-chloro-4-(trifluoromethyl)phenyl)-2-(6-ethyl-7-(4-(5-hydroxy-6-methylpyrimidine-4-carbonyl)piperazin-1-yl)-2-(2-methylprop-1-en-1-yl)-8-oxopyrido[2,3-b]pyrazin-5(8H)-yl)acetamide] | 
17 | ≤ 5 | < 0.5 | CCc1c(N2CCN(C(=O)c3ncnc(C)c3O)CC2)c(=O)c2nc(C=C3CCC3)cnc2n1CC(=O)Nc1ccc(C(F)(F)F)cc1Cl [I-38, N-(2-chloro-4-(trifluoromethyl)phenyl)-2-(2-(cyclobutylidenemethyl)-6-ethyl-7-(4-(5-hydroxy-6-methylpyrimidine-4-carbonyl)piperazin-1-yl)-8-oxopyrido[2,3-b]pyrazin-5(8H)-yl)acetamide] | 
18 | 100 to 500 | > 5 | CCc1c(N2CCN(C(=O)c3ncnc(C)c3O)CC2)c(=O)c2nc(CCO)cnc2n1CC(=O)Nc1ccc(C(F)(F)F)cc1Cl [I-41, N-(2-chloro-4-(trifluoromethyl)phenyl)-2-(6-ethyl-7-(4-(5-hydroxy-6-methylpyrimidine-4-carbonyl)piperazin-1-yl)-2-(2-hydroxyethyl)-8-oxopyrido[2,3-b]pyrazin-5(8H)-yl)acetamide] | 
19 | 5 to 50 | 2 to 5 | CCc1c(N2CCN(C(=O)c3ncnc(C)c3O)CC2)c(=O)c2nc(N3CCCCC3)cnc2n1CC(=O)Nc1ccc(C(F)(F)F)cc1Cl [I-42, N-(2-chloro-4-(trifluoromethyl)phenyl)-2-(6-ethyl-7-(4-(5-hydroxy-6-methylpyrimidine-4-carbonyl)piperazin-1-yl)-8-oxo-2-(piperidin-1-yl)pyrido[2,3-b]pyrazin-5(8H)-yl)acetamide] | 
20 | 5 to 50 | > 5 | CCc1c(N2CCN(C(=O)c3ncnc(C)c3O)CC2)c(=O)c2nc(N3CC(O)C3)cnc2n1CC(=O)Nc1ccc(C(F)(F)F)cc1Cl [I-45, N-(2-chloro-4-(trifluoromethyl)phenyl)-2-(6-ethyl-7-(4-(5-hydroxy-6-methylpyrimidine-4-carbonyl)piperazin-1-yl)-2-(3-hydroxyazetidin-1-yl)-8-oxopyrido[2,3-b]pyrazin-5(8H)-yl)acetamide] | 
21 | 50 to 100 | > 5 | CCc1c(N2CCN(C(=O)c3ncnc(C)c3O)CC2)c(=O)c2nc(CN3CCOCC3)cnc2n1CC(=O)Nc1ccc(C(F)(F)F)cc1Cl [I-49, N-(2-chloro-4-(trifluoromethyl)phenyl)-2-(6-ethyl-7-(4-(5-hydroxy-6-methylpyrimidine-4-carbonyl)piperazin-1-yl)-2-(morpholinomethyl)-8-oxopyrido[2,3-b]pyrazin-5(8H)-yl)acetamide] | 
